Source: patent US20180338952A1, “COMPOSITIONS AND METHODS FOR TREATING AND DIAGNOSING OCULAR DISORDERS” (Translatum Medicus Inc., priority 2014, published 2018)
“Also recorded” adds a separate entry of the source.

Experiments:
[1] = test system: circulating monocytes and resident macrophages; experiment: Monocyte/macrophage depletion in the NaIO3 model, FAF/DNIRA pattern; format: in vivo, rat; settings: for NaIO3-induced pattern of FAF (and DNIRA): macrophage/monocyte depletion, Day 3 and Day 7 after NaIO3
Excerpt: To determine the identity of the autofluorescent cells that coincide with the reticular pattern of FAF, excised retina were stained for with markers of the innate immune system, avoiding the 488 nm channel. Iba1 is a pan-microglial/macrophage marker and in the rat retina; antibodies against it identify the major phagocytic cell populations. […] Further, when compared against photoreceptor nuclear staining, this curvilinear pattern is seen to lie interposed between folds of the deformed ONL. This pattern of Iba1^+ cells corresponds with the pattern of hyperfluorescence observed in vivo by FAF imaging, and with the pattern of autofluorescent cells in excised retina. […] Importantly, at 7 days after NaIO3, all RPE cells are absent from the posterior eye cup, confirming that these cells cannot be responsible for the observed FAF. Also, identification of the autofluorescent cells as phagocytic was confirmed by comparison of imaging to preparations in which monocyte/macrophage depletion has been undertaken. Such depletion was achieved by treatment with gadolinium chloride (GAD).
Further, to confirm that hyperfluorescent FAF or abnormal patterns of FAF and hyperfluorescent DNIRA correlated or co-localized with the distribution of phagocytic cells, the circulating macrophage/monocyte population was depleted using gadolinium chloride (GAD or GdCl3), a rare earth metal salt which depresses macrophage activity. […] This was evident qualitatively both within the geographic areas of damage, and at its border (FIGS. 8A-C).

[2] = test system: retinal function (b-wave amplitude); experiment: Electroretinography toxicity study of systemic ICG; settings: high (5.0 mg/kg) and low (0.35 mg/kg) systemic dose vs PBS; three weeks following injection
Experimental: Electroretinography (ERG) was performed to evaluate potential toxicity.
Electroretinography (ERG): animals receiving ICG or PBS were evaluated using the Espion (DiagnosysLLC, USA) mini-Ganzfeld ERG system. Following anesthesia, animals were placed on an electrically silent heating pad and gold coil electrodes placed on the corneal surface after application of GenTeal lubricating drops. Following a short train of dim flashes (0.01 candela s/m^2, 1.0 Hz), a scotopic b-wave amplitude was evaluated using a single bright flash (3 candela s/m^2) that we previously determined consistently produces a response close to the maximum b-wave amplitude. Student t-test was used to compare post-injection amplitudes against baseline (prior to injection).

[3] = biological target: complement factor D (CFD) (Homo sapiens, UniProt P00746); settings: phase II, 18 month period, patients; cited from earlier work
Sequence of complement factor D (CFD) (P00746 26-253): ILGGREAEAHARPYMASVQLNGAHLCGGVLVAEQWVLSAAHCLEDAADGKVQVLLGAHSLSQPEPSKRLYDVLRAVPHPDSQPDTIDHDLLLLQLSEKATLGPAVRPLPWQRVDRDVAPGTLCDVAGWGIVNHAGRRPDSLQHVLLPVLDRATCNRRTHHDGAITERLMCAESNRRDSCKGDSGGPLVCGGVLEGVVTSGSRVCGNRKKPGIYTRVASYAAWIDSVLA

With `[Cl][Gd]([Cl])[Cl]` [GAD, gadolinium chloride] the area of damage ([1]; 7 days after NaIO3 and simultaneous GAD depletion) was “smaller areas of damage”, the “NaIO3-induced pattern of FAF (and DNIRA)” value [1] was “far less well defined reticular patterns of FAF; also recorded: profound alteration; also recorded: less well-demarcated borders” and the “NaIO3-induced pattern of FAF (and DNIRA)” value ([1]; listed as gadolinium) was “alters the FAF pattern”.

With `CC1(C)C(/C=C/C=C/C=C/C=C2\N(CCCCS(=O)(=O)O)c3ccc4ccccc4c3C2(C)C)=[N+](CCCCS(=O)(=O)[O-])c2ccc3ccccc3c21` [ICG, indocyanine green] the “change in ERG b-wave amplitude” value [2] was “no statistically significant change”.

For “Lampilizumab: complement factor D (CFD) inhibitor; anti-factor D antibody (Genentech)”, the “growth (expansion) of geographic atrophy” value [3] is listed as “can slow the growth”.
